From US20140162876A1, “Fungicidal substituted 1--1H-[1,2,4]triazole compounds” (BASF SE, priority 2011, published 2014) come the findings set out here.

Test [1] concerns Septoria tritici. Description: G1 Preventative control of leaf blotch on wheat caused by Septoria tritici (Septtr P7), green house. It is filed as in vivo. To be noted: wheat sprayed 7 days before inoculation, % diseased leaf area, untreated control 80. As to the method:
The spray solutions were prepared in several steps: The stock solution were prepared: a mixture of acetone and/or dimethylsulfoxide and the wetting agent/emulsifier Wettol, which is based on ethoxylated alkylphenoles, in a relation (volume) solvent-emulsifier of 99 to 1 was added to 25 mg of the compound to give a total of 5 ml. Water was then added to total volume of 100 ml. This stock solution was diluted with the described solvent-emulsifier-water mixture to the given concentration. G1 Preventative Control of Leaf Blotch on Wheat Caused by Septoria tritici (Septtr P7) Leaves of pot-grown wheat seedling were sprayed to run-off with an aqueous suspension of the active compound or their mixture, prepared as described. The plants were allowed to air-dry. Seven days later the plants were inoculated with an aqueous spore suspension of Septoria tritici. Then the trial plants were immediately transferred to a humid chamber at 18-22° C. and a relative humidity close to 100%. […] After 4 weeks the extent of fungal attack on the leaves was visually assessed as % diseased leaf area.

In the next test the test system is Phakopsora pachyrhizi. The test can be described thus: G4 Protective control of soy bean rust on soy beans caused by Phakopsora pachyrhizi (Phakpa P2), green house. The test is classed as in vivo. As to conditions: soy bean sprayed 2 days before inoculation, % diseased leaf area, untreated control 90.
In the next test the test system is Botrytis cinerea. The test can be described thus: M2 Activity against the grey mold Botrytis cinerea in the microtiterplate test (Botrci). The test is classed as cell-based. To be noted: microtiter plate, 7 days after inoculation.
A further test deals with Pyricularia oryzae. The test is classed as cell-based. To be noted: microtiter plate, 7 days after inoculation.
The test system of test [2] is Septoria tritici. Description: G2 Curative control of leaf blotch on wheat caused by Septoria tritici (Septtr K7), green house. It is filed as in vivo. As to conditions: wheat sprayed 7 days after inoculation (curative), % diseased leaf area, untreated control 80. As to the method:
The spray solutions were prepared in several steps: The stock solution were prepared: a mixture of acetone and/or dimethylsulfoxide and the wetting agent/emulsifier Wettol, which is based on ethoxylated alkylphenoles, in a relation (volume) solvent-emulsifier of 99 to 1 was added to 25 mg of the compound to give a total of 5 ml. Water was then added to total volume of 100 ml. This stock solution was diluted with the described solvent-emulsifier-water mixture to the given concentration. G2 Curative Control of Leaf Blotch on Wheat Caused by Septoria tritici (Septtr K7) Leaves of pot-grown wheat seedling were inoculated with an aqueous spore suspension of Septoria tritici. Then the trial plants were immediately transferred to a humid chamber at 18-22° C. and a relative humidity close to 100%. […] Seven days after inoculation the plants were sprayed to run-off with an aqueous suspension of the active compound or their mixture, prepared as described. […] After 4 weeks the extent of fungal attack on the leaves was visually assessed as % diseased leaf area.

In the next test the test system is Alternaria solani. Description: M3 Activity against early blight caused by Alternaria solani (Alteso), microtest. To be noted: microtiter plate, 7 days after inoculation. The test is classed as cell-based.
The test system of test [3] is Septoria tritici. The test can be described thus: M4 Activity against leaf blotch on wheat caused by Septoria tritici (Septtr), microtest. The test is classed as cell-based. To be noted: microtiter plate, 7 days after inoculation.

Regarding `COC(C)(Cn1cncn1)c1ccc(Oc2ccc(Cl)cc2)cc1Cl` (stereo not shown), the “Disease (%) at 16 ppm Septtr P7” value with Septoria tritici [1] was 80%.
As to `CCC(Cn1cncn1)(OC)c1ccc(Oc2ccc(Cl)cc2)cc1Cl` (stereo not shown), the “Disease (%) at 16 ppm Phakpa P2” value in the test with Phakopsora pachyrhizi is recorded as 80%.
`CCOC(C)(Cn1cncn1)c1ccc(Oc2ccc(Cl)cc2)cc1Cl` (stereo not shown) [Compound I-1]: the “Disease (%) at 2 ppm Botrci” value in the test with Botrytis cinerea was found to be 0%. Further, the “Disease (%) at 0.125 ppm Pyrior” value with Pyricularia oryzae came to 50%. The “Disease (%) at 250 ppm Septtr K7” value in the test with Septoria tritici [2] was determined as 10%. Besides, the “Disease (%) at 0.125 ppm Alteso” value with Alternaria solani is listed as 25%. For the same molecule, the “Disease (%) at 0.032 ppm Septtr” value in the test on Septoria tritici [3] turned out to be 5%. Further, the “Disease (%) at 16 ppm Septtr P7” value in the test with Septoria tritici [1] turned out to be 40%. The “Disease (%) at 250 ppm Phakpa P2” value in the test with Phakopsora pachyrhizi turned out to be 5%.
In the case of `CCOC(CC)(Cn1cncn1)c1ccc(Oc2ccc(Cl)cc2)cc1Cl` (stereo not shown) [Compound I-2, 1-[2-[2-chloro-4-(4-chlorophenoxy)phenyl]-2-ethoxy-butyl]-1,2,4-triazole], the “Disease (%) at 16 ppm Phakpa P2” value in the test with Phakopsora pachyrhizi was 40%.
Consider `CCOC(Cn1cncn1)c1ccc(Oc2ccc(Cl)cc2)cc1Cl` (stereo not shown) [drawing 21], for which the “Disease (%) at 250 ppm Septtr K7” value with Septoria tritici [2] worked out at 40%. Also, in the test on Phakopsora pachyrhizi, the “Disease (%) at 250 ppm Phakpa P2” value is 30%.
In the case of `CCOC(Cn1cncn1)c1ccc(Oc2ccc(Cl)cc2)cc1Cl` (stereo not shown) [drawing 24], in the test with Botrytis cinerea, the “Disease (%) at 2 ppm Botrci” value is 24%. For the same molecule, in the test with Pyricularia oryzae, the “Disease (%) at 0.125 ppm Pyrior” value turned out to be 84%. Moreover, the “Disease (%) at 0.125 ppm Alteso” value with Alternaria solani is given as 44%. Besides, the “Disease (%) at 0.032 ppm Septtr” value in the test on Septoria tritici [3] was 31%.
